Measurements published in the supplement of paper PMC10307832.

Tests used:
Test in all cases: relative viability (nuclei count vs DMSO), 5 days (fraction); higher = more cells survive
Wnt-C59 + Dasatinib = compound: CC1=NC=CC(=C1)C2=CC=C(C=C2)CC(=O)NC3=CC=C(C=C3)C4=CN=CC=C4 [Wnt-C59] + Cc1nc(Nc2ncc(C(=O)Nc3c(C)cccc3Cl)s2)cc(N2CCN(CCO)CC2)n1 [Dasatinib] (partner 0.075 µM)
In short: (§1)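 Each reported value is a median over duplicate plates. It expresses relative viability: treated-well nuclei count divided by vehicle-well nuclei count. Lung cancer cell lines in 1536-well plates were dosed by pin tool a day after seeding, alone with one drug or with a fixed anchor-drug dose plus five library-drug doses (not always all listed) in √10 steps, and nuclei were counted after 5 days.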

Wnt-C59 + Alpelisib = compound: CC1=NC=CC(=C1)C2=CC=C(C=C2)CC(=O)NC3=CC=C(C=C3)C4=CN=CC=C4 [Wnt-C59] + Cc1nc(NC(=O)N2CCC[C@H]2C(N)=O)sc1-c1ccnc(C(C)(C)C(F)(F)F)c1 [Alpelisib] (partner 2 µM)
In short: as §1

Lapatinib + Pictilisib = compound: CS(=O)(=O)CCNCc1ccc(-c2ccc3ncnc(Nc4ccc(OCc5cccc(F)c5)c(Cl)c4)c3c2)o1 [Lapatinib] + CS(=O)(=O)N1CCN(Cc2cc3nc(-c4cccc5[nH]ncc45)nc(N4CCOCC4)c3s2)CC1 [Pictilisib] (partner 1 µM)
In short: as §1

Wnt-C59 + Foretinib = compound: CC1=NC=CC(=C1)C2=CC=C(C=C2)CC(=O)NC3=CC=C(C=C3)C4=CN=CC=C4 [Wnt-C59] + COc1cc2c(Oc3ccc(NC(=O)C4(C(=O)Nc5ccc(F)cc5)CC4)cc3F)ccnc2cc1OCCCN1CCOCC1 [Foretinib] (partner 0.25 µM)
In short: as §1

With UMC-11 the relative viability (Wnt-C59 + Dasatinib; first compound 0.001 µM) was 0.444, the relative viability (Wnt-C59 + Dasatinib; first compound 0.01 µM) was 0.417 and the relative viability (Wnt-C59 + Dasatinib; first compound 0.03162 µM) was 0.525. The relative viability (Wnt-C59 + Dasatinib; first compound 0.1 µM) was 0.468, the relative viability (Wnt-C59 + Alpelisib; first compound 0.001 µM) was 1.08 and the relative viability (Wnt-C59 + Alpelisib; first compound 0.01 µM) was 0.978. For the same cell line, the relative viability (Wnt-C59 + Alpelisib; first compound 0.03162 µM) was 1.07, the relative viability (Wnt-C59 + Alpelisib; first compound 0.1 µM) was 1.01 and the relative viability (Lapatinib + Pictilisib; first compound 0.02 µM) was 0.251. The relative viability (Lapatinib + Pictilisib; first compound 0.06325 µM) was 0.731, the relative viability (Lapatinib + Pictilisib; first compound 0.2 µM) was 0.827 and the relative viability (Lapatinib + Pictilisib; first compound 0.6325 µM) was 0.839. It also gave a relative viability (Lapatinib + Pictilisib; first compound 2 µM) of 0.759, a relative viability (Wnt-C59 + Foretinib; first compound 0.001 µM) of 1.04 and a relative viability (Wnt-C59 + Foretinib; first compound 0.01 µM) of 1.01. For the same cell line, the relative viability (Wnt-C59 + Foretinib; first compound 0.03162 µM) was 1.06 and the relative viability (Wnt-C59 + Foretinib; first compound 0.1 µM) was 0.996.
